{"source": "patent US8399383B2", "about": "“Protein chips for high throughput screening of protein activity” (Yale University, priority 2000, dated 2013)", "target": "human protein kinase A (PKA) (Homo sapiens, UniProt P17612)", "assay": "Kinase/inhibitor assay on protein chip (33P-γ-ATP phosphorylation)", "assay_type": "biochemical", "conditions": "peptide and MBP substrates; different concentrations of inhibitor; FIG. 7", "method": "Substrates were bound to the surface of the GPTS-treated microwells on the protein chip at room temperature for one hour, then blocked with 1% BSA and 100 mM Tris pH 7.5, and washed three times with TBS buffer. Kinases and different concentrations of kinase inhibitors were added to the microwells in the presence of ^33P-γ-ATP. The phosphorylation reaction was carried out at 30° C. for thirty minutes. After completion of the reaction, the protein chip was washed extensively with TBS buffer at room temperature, and then allowed to dry. Phosphorylation signals were obtained by exposing the protein chip to either X-ray film or a phosphoimager.\nA human protein kinase A (PKA), a human map kinase (MAPK), three yeast PKA homologs (TPK1, TPK2 and TPK3), and two other yeast protein kinases (HSL1 and RCK1) were tested against two substrates (i.e., a protein substrate for PKA and a commonly used kinase substrate, MBP) using different concentrations of PKIA (a specific human PKA inhibitor) or SB202190 (a MAPK inhibitor).", "note": "Entries after “also recorded” stand apart in the source; their conditions may differ."}
{"smiles": "Oc1ccc(-c2nc(-c3ccncc3)c(-c3ccc(F)cc3)[nH]2)cc1", "note": "[SB202190]", "values": [{"measurement": "inhibition of PKA activity", "result": "did not inhibit; also recorded: did not show any inhibitory effect"}]}
